Tests used:
[1] = test system: HBV; experiment: Effect of LIPG inhibitor on HBV in Huh7 cell line carrying HBV expression construct (Example 10); type: cell-based, hepatitis B virus; details: Huh7 cells, inhibitor 1 μM to 100 μM added five days after construct introduction, one week; depending on the concentration
Experimental: An HBV expression construct (HBV-C: provided by Dr. Yasuhito Tanaka at Nagoya City University) was introduced into Huh7 cell line. Five days after the introduction, an LIPG inhibitor (GSK264220A) was added at 1 μM to 100 μM and the cells were cultured.

[2] = test system: HBV; experiment: shRNA function against HBV infection of fresh human hepatocytes (PHH cells), short-term culture (Example 3); details: for amount of cccDNA: shRNA alone, lentivirus day 0, HBV day 1, collected day 7; for amount of cccDNA, combined use of ETV: shRNA plus entecavir (ETV) 10 nM from day 2, collected day 7 (short-term culture)
Experimental: Using fresh human hepatocytes (PHH cells) derived from PXB mouse (PhoenixBio Co., Ltd., Hiroshima, Japan), effects of shRNAs against each gene on infection of human hepatocytes with HBV were determined. Experiments were carried out by culturing PHH cells as follows. First, on day 0 of culture, the cells were infected with the lentivirus expressing the shRNA against each of the genes by a conventional method. A serum collected from an HBV-infected chimeric mouse infected with HBV (Genotype C. 5 HBV DNA copies/cell) was added to the cells as an HBV inoculum on day 1 of culture. On day 2 of culture, the cells were washed three times and entecavir (ETV) (10 nM) was added thereto. On day 7 of culture, the cells were collected and the amount of HBV DNA, the amount of HBV cccDNA, and the mRNA level of each gene were determined. The amounts of HBV DNA, HBV cccDNA, and pg RNA were quantified in the same manner as in Example 1.

[3] = test system: DOCK11 gene; experiment: DOCK11 gene expression (mRNA) in Huh 7.5 cells (Example 8); details: Huh7.5 cells, vs cont shRNA
Experimental: The mRNA of DOCK11 gene was quantified by real time PCR according to a conventional method.
The antiviral activity of the shRNA against Dock11 gene was evaluated using a replicon system for JFH1 strain. HCV replication analysis was performed by transfecting Huh 7.5 cells with synthetic JFH1-RNA. Cells in which DOCK11 was constitutively knocked down were prepared by introducing DOCK11 shRNA #2 into Huh 7.5 cells. Cells into which cont shRNA was introduced were used as a control. Huh 7.5 cells into which each shRNA had been introduced were transfected with 1 μg synthetic RNA (JFH1-RNA) using TransIT®-mRNA Transfection Kit (Mirus). Total RNAs were isolated 24, 48 and 72 hours after the transfection using High Pure RNA Isolation Kit (Roche), and cDNAs were synthesized using high-capacity cDNA reverse transcription kit (Applied Biosystems, Carlsbad, Calif.). […] The expression of DOCK11 gene was evaluated by determining the level of mRNA in the same manner as in Example 2.

[4] = test system: HBV; experiment: shRNA introduced after established HBV infection of PHHs (Example 6); type: cell-based, hepatitis B virus; details: shRNA introduced one week after HBV infection, cultured 3 weeks
Experimental: The effects of an shRNA on the proliferation of HBV when PHHs were infected with HBV and then treated with an shRNA were investigated. One week after PHHs were infected with HBV, the shRNA (SEQ ID NO: 2) against Dock11 gene was introduced and the cells were cultured for 3 weeks with culture medium changes.

[5] = test system: HCV; experiment: HCV replication analysis, JFH1-RNA transfected Huh 7.5 cells (Example 8); details: Huh7.5 cells, 24, 48 and 72 hours after introduction of HCV RNA (JFH1-RNA)
Experimental: The antiviral activity of the shRNA against Dock11 gene was evaluated using a replicon system for JFH1 strain. HCV replication analysis was performed by transfecting Huh 7.5 cells with synthetic JFH1-RNA. Cells in which DOCK11 was constitutively knocked down were prepared by introducing DOCK11 shRNA #2 into Huh 7.5 cells. Cells into which cont shRNA was introduced were used as a control. Huh 7.5 cells into which each shRNA had been introduced were transfected with 1 μg synthetic RNA (JFH1-RNA) using TransIT®-mRNA Transfection Kit (Mirus). Total RNAs were isolated 24, 48 and 72 hours after the transfection using High Pure RNA Isolation Kit (Roche), and cDNAs were synthesized using high-capacity cDNA reverse transcription kit (Applied Biosystems, Carlsbad, Calif.).

Row | Molecule | amount of cccDNA [2] | amount of cccDNA, combined use of ETV [2] | also measured
1 | Cc1oc(S(=O)(=O)N2CCCCC2)cc1NC(=O)Nc1ccccc1 [GSK264220A] |  |  | amount of HBV DNA [1]: decreased; amount of HBV cccDNA [1]: decreased
2 | DENND2A #2: lentivirus-expressed shRNA against DENND2A gene, SEQ ID NO: 7, used in Examples 3 and 4 (guide CCGGCCAATGAAGGAGAACCCTTATCTCGAGATAAGGGTTCTCCTTCATTGGTTTTTTG) | dramatically decreased | below the detection sensitivity | amount of cccDNA, combined use of ETV ([2]; listed as shRNA for DENND2A gene): below the detection limit
3 | DOCK11 #2: lentivirus-expressed shRNA against DOCK11 gene, SEQ ID NO: 2, used in Examples 3, 4, 6, 8, 12 (guide CCGGGTACTAGACACCATATCATTTCTCGAGAAATGATATGGTGTCTAGTACTTTTTG) | dramatically decreased | below the detection sensitivity | expression level of DOCK11 gene [3]: decreased; amount of cccDNA, combined use of ETV ([2]; listed as shRNA for Dock11 gene): below the detection limit; cccDNA of HBV [4]: disappear; pgRNA of HBV [4]: disappear; HCV RNA replication [5]: effectively suppressed
4 | HECW2 #3: lentivirus-expressed shRNA against HECW2 gene, SEQ ID NO: 17, used in Examples 3 and 4 (guide CCGGGCACAATACTTGGAGTCAATTCTCGAGAATTGACTCCAAGTATTGTGCTTTTT) | decreased | synergistic effect to decrease cccDNA | 
5 | LIPG #5: lentivirus-expressed shRNA against LIPG gene, SEQ ID NO: 14, used in Examples 3 and 4 (guide CCGGTTACACGGATGCGGTCAATAACTCGAGTTATTGACCGCATCCGTGTAATTTTTG) | decreased | synergistic effect to decrease cccDNA | 

Source: patent publication US10709727B2, “Antiviral drugs” (priority 2015, dated 2020)
